Literature values as cited in patent publication US8034766B2 (priority 2006, dated 2011).

Tested on: prion
Conditions: in vivo

For CC(=O)OO [Peracetic acid, peracetic acid], the “onward transmission rate following treatment” value is listed as 100%.
